Experiments:
Test in all cases: combination Emax (second highest fraction inhibited in the dose matrix, 72 h); higher = more inhibition; extreme values may be limits of the assay
[1] = tested on: COLO-668 (Small Cell Lung Carcinoma)
In short: (§1)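 Bliss excess equals the observed combination effect minus the expected value EA + EB − EA·EB, where EA and EB are the effects of each agent alone. Combination Emax is the second-highest inhibition within the matrix. Inhibition was scaled from CellTiter-Glo 2.0 luminescence, with 0 set by vehicle wells and 1 by blank wells, after 72 hours of two-drug dosing of cells plated in 1536-well plates.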

COLO-679 (Melanoma) = tested on: COLO-679 (Melanoma)
In short: as §1

[2] = tested on: EFO-21 (Ovarian Carcinoma)
In short: as §1

[3] = tested on: G-401 (Other Solid Carcinomas)
In short: as §1

[4] = tested on: HAL-01 (B-Lymphoblastic Leukemia)
In short: as §1

[5] = tested on: HCC1500 (Breast Carcinoma)
In short: as §1

[6] = tested on: HCC1937 (Breast Carcinoma)
In short: as §1

Hey (Ovarian Carcinoma) = tested on: Hey (Ovarian Carcinoma)
In short: as §1

[7] = tested on: KGN (Other Solid Carcinomas)
In short: as §1

[8] = tested on: KMRC-1 (Kidney Carcinoma)
In short: as §1

[9] = tested on: MDA-MB-453 (Breast Carcinoma)
In short: as §1

[10] = tested on: MOG-G-UVW (Low Grade Glioma)
In short: as §1

[11] = tested on: MOLT-4 (T-Lymphoblastic Leukemia)
In short: as §1

[12] = tested on: NCI-H1355 (Lung Adenocarcinoma)
In short: as §1

[13] = tested on: NCI-H1838 (Lung Adenocarcinoma)
In short: as §1

[14] = tested on: NCI-H1993 (Lung Adenocarcinoma)
In short: as §1

[15] = tested on: OE33 (Esophageal Adenocarcinoma)
In short: as §1

[16] = tested on: SK-LU-1 (Lung Adenocarcinoma)
In short: as §1

[17] = tested on: SKN (Other Solid Carcinomas)
In short: as §1

[18] = tested on: SNU-387 (Hepatocellular Carcinoma)
In short: as §1

| Structure (SMILES) | combination Emax [1] | combination Emax (COLO-679 (Melanoma)) | combination Emax [2] | combination Emax [3] | combination Emax [4] | combination Emax [5] | combination Emax [6] | combination Emax (Hey (Ovarian Carcinoma)) | combination Emax [7] | combination Emax [8] | combination Emax [9] | combination Emax [10] | combination Emax [11] | combination Emax [12] | combination Emax [13] | combination Emax [14] | combination Emax [15] | combination Emax [16] | combination Emax [17] | combination Emax [18] |
| --- | --- | --- | --- | --- | --- | --- | --- | --- | --- | --- | --- | --- | --- | --- | --- | --- | --- | --- | --- | --- |
| NC1(C(=O)N[C@@H](CCO)c2ccc(Cl)cc2)CCN(c2ncnc3[nH]ccc23)CC1 [Capivasertib] + CC(C)n1c(=O)n(C)c2cnc3cc(F)c(-c4ccc(OCCCN5CCCCC5)nc4)cc3c21 [AZD1390] (first compound max 10 µM, 7x7, partner max 0.3 µM) | 0.401 | 0.225 | 0.217 | 0.545 | 0.492 | 0.165 | 0.426 | 0.225 | 0.414 | 0.435 | 0.56 | 0.576 | 0.682 | 0.273 | 0.206 | 0.595 | 0.185 | 0.195 | 0.516 | 0.256 |
| NC1(C(=O)N[C@@H](CCO)c2ccc(Cl)cc2)CCN(c2ncnc3[nH]ccc23)CC1 [Capivasertib] + CCN(CCO)CCCOc1ccc2c(Nc3cc(CC(=O)Nc4cccc(F)c4)[nH]n3)ncnc2c1 [AZD2811] (first compound max 10 µM, 7x7, partner max 1 µM) | 0.454 | 0.31 | 0.235 | 0.658 | 0.464 | 0.265 | 0.481 | 0.471 | 0.688 | 0.494 | 0.599 | 0.733 | 0.997 | 0.425 | 0.386 | 0.605 | 0.202 | 0.195 | 0.555 | 0.312 |
| NC1(C(=O)N[C@@H](CCO)c2ccc(Cl)cc2)CCN(c2ncnc3[nH]ccc23)CC1 [Capivasertib] + COc1nnc2ccc(N3CCC(c4ccc(OCCN5CCN(C)C(=O)[C@H]5C)cc4)CC3)nn12 [AZD5153] (first compound max 10 µM, 7x7, partner max 1 µM) | 0.786 | 0.578 | 0.321 | 0.79 | 0.719 | 0.264 | 0.44 | 0.556 | 0.709 | 0.557 | 0.93 | 0.835 | 1 | 0.503 | 0.264 | 0.676 | 0.319 | 0.381 | 0.725 | 0.552 |
| NC1(C(=O)N[C@@H](CCO)c2ccc(Cl)cc2)CCN(c2ncnc3[nH]ccc23)CC1 [Capivasertib] + C[C@@H]1COCCN1C2=NC(=NC(=C2)C3(CC3)[S@](=N)(=O)C)C4=C5C=CNC5=NC=C4 [AZD6738] (first compound max 10 µM, 7x7, partner max 10 µM) | 0.677 | 0.634 | 0.415 | 0.751 | 0.97 | 0.335 | 0.518 | 0.777 | 0.9 | 0.579 | 0.706 | 0.796 | 1 | 0.773 | 0.494 | 0.742 | 0.748 | 0.511 | 0.608 | 0.613 |
| NC1(C(=O)N[C@@H](CCO)c2ccc(Cl)cc2)CCN(c2ncnc3[nH]ccc23)CC1 [Capivasertib] + Cn1cnc2c(F)c(Nc3ccc(Br)cc3Cl)c(C(=O)NOCCO)cc21 [Selumetinib] (first compound max 10 µM, 7x7, partner max 10 µM) | 0.669 | 0.786 | 0.335 | 0.746 | 0.554 | 0.25 | 0.527 | 0.773 | 0.54 | 0.504 | 0.572 | 0.714 | 0.758 | 0.443 | 0.367 | 0.839 | 0.423 | 0.437 | 0.594 | 0.409 |
| CS(=O)(=O)CCNCc1ccc(-c2ccc3ncnc(Nc4ccc(OCc5cccc(F)c5)c(Cl)c4)c3c2)o1 [Lapatinib] + C[C@@H](Oc1cc(-c2cnn(C3CCNCC3)c2)cnc1N)c1c(Cl)ccc(F)c1Cl [Crizotinib] (first compound max 10 µM, 7x7, partner max 10 µM) | 0.665 | 0.68 | 0.371 | 0.942 | 0.955 | 0.854 | 0.674 | 0.865 | 0.944 | 0.952 | 0.531 | 0.842 | 0.966 | 0.564 | 0.436 | 0.94 | 0.909 | 0.451 | 0.743 | 0.93 |
| CC(=O)c1c(C)c2cnc(Nc3ccc(N4CCNCC4)cn3)nc2n(C2CCCC2)c1=O [Palbociclib] + CC1(C)CCC(CN2CCN(c3ccc(C(=O)NS(=O)(=O)c4ccc(NCC5CCOCC5)c([N+](=O)[O-])c4)c(Oc4cnc5[nH]ccc5c4)c3)CC2)=C(c2ccc(Cl)cc2)C1 [Venetoclax] (first compound max 10 µM, 7x7, partner max 1 µM) | 0.114 | 0.0736 | 0.105 | 0.849 | 0.99 | 0.545 | 0.0808 | 0.355 | 0.507 | 0.162 | 0.275 | 0.497 | 0.629 | 0.242 | 0.279 | 0.403 | 0.121 | 0.279 | 0.342 | 0.129 |
| CC(=O)c1c(C)c2cnc(Nc3ccc(N4CCNCC4)cn3)nc2n(C2CCCC2)c1=O [Palbociclib] + Cc1c2c(nn1C)CSCc1cc(n(C)n1)CSc1cc(c3ccccc3c1)OCCCc1c(C(=O)O)n(C)c3c-2c(Cl)ccc13 [AZD5991] (first compound max 10 µM, 7x7, partner max 1 µM) | 0.304 | 0.335 | 0.256 | 0.854 | 0.935 | 0.434 | 0.242 | 0.431 | 0.644 | 0.322 | 0.282 | 0.526 | 0.9 | 0.345 | 0.363 | 0.403 | 0.275 | 0.297 | 0.385 | 0.429 |
| CC(=O)c1c(C)c2cnc(Nc3ccc(N4CCNCC4)cn3)nc2n(C2CCCC2)c1=O [Palbociclib] + Cn1cnc2c(F)c(Nc3ccc(Br)cc3Cl)c(C(=O)NOCCO)cc21 [Selumetinib] (first compound max 10 µM, 7x7, partner max 10 µM) | 0.363 | 0.75 | 0.245 | 0.859 | 0.928 | 0.193 | 0.214 | 0.623 | 0.529 | 0.218 | 0.241 | 0.523 | 0.766 | 0.325 | 0.321 | 0.69 | 0.259 | 0.362 | 0.349 | 0.221 |
| Cn1cnc2c(F)c(Nc3ccc(Br)cc3Cl)c(C(=O)NOCCO)cc21 [Selumetinib] + C=CCn1c(=O)c2cnc(Nc3ccc(N4CCN(C)CC4)cc3)nc2n1-c1cccc(C(C)(C)O)n1 [AZD1775] (first compound max 10 µM, partner max 1 µM) | 0.47 | 0.823 | 0.315 | 0.828 | 0.876 | 0.207 | 0.562 | 0.719 | 0.695 | 0.203 | 0.206 | 0.72 | 1 | 0.479 | 0.468 | 0.83 | 0.445 | 0.46 | 0.353 | 0.544 |
| Cn1cnc2c(F)c(Nc3ccc(Br)cc3Cl)c(C(=O)NOCCO)cc21 [Selumetinib] + CC(C)n1c(=O)n(C)c2cnc3cc(F)c(-c4ccc(OCCCN5CCCCC5)nc4)cc3c21 [AZD1390] (first compound max 10 µM, 7x7, partner max 0.3 µM) | 0.421 | 0.796 | 0.205 | 0.367 | 0.48 | 0.157 | 0.208 | 0.549 | 0.341 | 0.165 | 0.171 | 0.346 | 0.348 | 0.172 | 0.237 | 0.627 | 0.265 | 0.264 | 0.113 | 0.284 |
| Cn1cnc2c(F)c(Nc3ccc(Br)cc3Cl)c(C(=O)NOCCO)cc21 [Selumetinib] + CCN(CCO)CCCOc1ccc2c(Nc3cc(CC(=O)Nc4cccc(F)c4)[nH]n3)ncnc2c1 [AZD2811] (first compound max 10 µM, 7x7, partner max 1 µM) | 0.407 | 0.815 | 0.212 | 0.561 | 0.441 | 0.157 | 0.314 | 0.611 | 0.514 | 0.233 | 0.162 | 0.642 | 0.992 | 0.275 | 0.322 | 0.703 | 0.364 | 0.301 | 0.255 | 0.319 |
| Cn1cnc2c(F)c(Nc3ccc(Br)cc3Cl)c(C(=O)NOCCO)cc21 [Selumetinib] + C[C@@H]1COCCN1C2=NC(=NC(=C2)C3(CC3)[S@](=N)(=O)C)C4=C5C=CNC5=NC=C4 [AZD6738] (first compound max 10 µM, 7x7, partner max 10 µM) | 0.735 | 0.82 | 0.255 | 0.684 | 0.976 | 0.183 | 0.421 | 0.748 | 0.808 | 0.373 | 0.684 | 0.691 | 0.991 | 0.596 | 0.374 | 0.795 | 0.775 | 0.376 | 0.423 | 0.454 |
